This is an account of results in paper PMC9594487 (Cancer chemotherapy and pharmacology, 2017).

Data set [1] concerns patients with advanced solid tumors. Nature of the data set: Phase I 3+3 dose escalation: DLT, MTD and recommended dose. Conditions: in vivo, iv.
For data set [2] the following is noted: background statement, no reference given, cited from earlier work.
The conditions of data set [3]: single agent in a phase I trial; cited from earlier work.

In the case of Cilengitide, the “recommended dose of cilengitide for subsequent study (recommended phase II dose)” value in data set [1] turned out to be 2000 mg. In data set [2], the route of clearance result is recorded as “predominantly renally cleared” and the terminal half-life is 3 to 5 h. The minimum washout in data set [2] (estimated) was 24 h. Further, the “maximum tolerated dose (MTD), single agent” value in data set [3] is reported as “not reached”.
